In US7323474B2, “Pyridine derivatives inhibiting angiogenesis and/or VEGF receptor tyrosine kinase” (Novartis AG, priority 2000, dated 2008):

Experiments:
[1] = biological target: T1, human VEGF receptor (KDR) (Homo sapiens, UniProt P35968); test: Test for activity against VEGF-induced KDR phosphorylation (transfected CHO cells, sandwich ELISA); type: cell-based; details: 2 h compound, then VEGF 20 ng/ml for 5 min, % inhibition of VEGF-induced KDR phosphorylation, read-out: ED50 (the source's name)
T1 construct: expressed in transfected cells; host or cells: CHO cells (stably transfected)
Experimental: Using a further cellular in vitro experiment, the inhibition of the VEGF-induced KDR autophosphorylation can be confirmed: Transfected CHO cells, which permanently express human VEGF receptor (KDR), are seeded in culture medium (with 10% fetal calf serum=FCS) in 6-well cell culture plates and incubated at 37° C., 5% CO2 until they are approximately 80% confluent. The compounds to be tested are then diluted in culture medium (without FCS, with 0.1% bovine serum albumin=BSA) and added to the cells. (Controls receive medium without test compounds). After incubation for two hours at 37° C., recombinant VEGF is added; the final VEGF concentration is 20 ng/ml. After incubating for a further five minutes at 37° C., the cells are washed twice with ice-cold PBS (phosphate-buffered physiological saline) and immediately lysed in 100 μl lysis buffer per well. The lysates are then centrifuged to remove the cell nuclei, and the protein concentrations of the supematants are determined by a commercial protein assay (BIORAD). The lysates can then be either further used immediately or stored at −20° C. if required. To determine the KDR phosphorylation, a “sandwich ELISA” is carried out. A monoclonal antibody to KDR (for example Mab 1495.12.14; prepared by H. Towbin) is immobilised on black ELISA plates (OptiPlate™ HTRF-96 by Packard). Subsequently, the plates are washed and any remaining free protein binding sites are neutralised with 1% BSA in PBS. The cell lysates (20 μg protein per well) are then incubated over night at 4° C. together with an anti-phosphotyrosin antibody, which is coupled with alkaline phosphatase (PY20:AP from Transduction Laboratories). […] Luminescence is measured in a Packard Top Count Microplate Scintillation Counter (Top Count). The difference between the signal from the positive control (stimulated with VEGF) and that from the negative control (not stimulated with VEGF) corresponds to the VEGF-induced KDR phosphorylation (=100%). The activity of the tested substances is calculated as % inhibition of the VEGF-induced KDR phosphorylation, whereby the concentration of a substance which effects semi-maximum inhibition is called ED50 (effective dose for 50% inhibition). […] Test for activity against VEGF-Induced KDR phosphorylation The cellular in vitro test is carried out using VEGF and KDR-transfected cells, as described above. The ED50 values determined are given below, insofar as they have been accurately recorded: […]

[2] = biological target: T2, KDR VEGF-receptor tyrosine kinase (Homo sapiens, UniProt P35968); test: Test for activity against KDR VEGF-receptor tyrosine kinase; type: biochemical; details: KDR kinase domain; poly(Glu,Tyr) 4:1 8 μg/ml, 8 μM [33P]-ATP, 10 minutes at room temperature
T2 construct: instead of the Flt-1 kinase domain, the KDR kinase domain
Experimental: Test for activity against VEGF-receptor tyrosine kinase: the test is conducted using Flt-1 VEGF-receptor tyrosine kinase. The detailed procedure is as follows: 30 μl kinase solution (kinase domain of Flt-1, Shibuya et al., Oncogene 5, 519-24 [1990], according to the specific activity, in order to achieve an activity of 4000-6000 counts per minute [cpm] in the sample without inhibitor) in 20 mM Tris.HCl pH 7.5, 3 mM manganese dichloride (MnCl2), 3 mM magnesium chloride (MgCl2) and 3 μg/ml poly(Glu,Tyr) 4:1 (Sigma, Buchs, Switzerland), 8 μM [^33P]-ATP (0.2 μCi/batch), 1% dimethyl sulfoxide, and 0 to 50 μM of the compound to be tested are Incubated together for 10 minutes at room temperature. The reaction is then ended by the addition of 10 μl 0.25 M ethylenediaminetetraacetate (EDTA) pH 7. Using a multichannel dispenser (LAB SYSTEMS, USA), an aliquot of 20 μl is applied to a PVDF (=polyvinyl difluoride) Immobilon P membrane (Millipore, USA), which is incorporated into a Millipore microtitre filter manifold, and connected to a vacuum. Following complete elimination of the liquid, the membrane is washed 4 times successively in a bath containing 0.5% phosphoric acid (H3PO4), incubated for 10 minutes each time while shaking, then mounted in a Hewlett Packard TopCount Manifold and the radioactivity measured after the addition of 10 μl Microscint® (β-scintillation counter liquid; Packard USA). IC50-values are determined by linear regression analysis of the percentages for the inhibition of each compound in three concentrations (as a rule 0.01, 0.1, and 1 μM). Inhibition values (IC50 50% inhibition of activity compared with the control without an inhibitor of formula I) in the range of 5 nM to 1 μM, especially In the range of 5 nM to 500 nM are found.
Analogously to the above test, the efficacy of the compounds according to the invention as inhibitors of VEGF activity can be tested using the VEGF receptor tyrokinase KDR. In this test, instead of the Flt-1 kinase domain, the KDR kinase domain (Parast et al., Biochemistry 37 (47), 16788-801 (1998)) is used. The only difference in carrying out this test from the above test lies in the concentration of poly(Glu,Tyr) 4:1 (8 μg/ml), MnCl2 (1 mM) and MgCl2 (10 mM).
Test for activity against KDR VEGF-receptor tyrosine kinase The test is conducted using KDR VEGF-receptor tyrosine kinase, as described hereinabove. The IC50 values determined are given below, insofar as they have been accurately recorded: […]

T1 sequence (P35968 20-1356): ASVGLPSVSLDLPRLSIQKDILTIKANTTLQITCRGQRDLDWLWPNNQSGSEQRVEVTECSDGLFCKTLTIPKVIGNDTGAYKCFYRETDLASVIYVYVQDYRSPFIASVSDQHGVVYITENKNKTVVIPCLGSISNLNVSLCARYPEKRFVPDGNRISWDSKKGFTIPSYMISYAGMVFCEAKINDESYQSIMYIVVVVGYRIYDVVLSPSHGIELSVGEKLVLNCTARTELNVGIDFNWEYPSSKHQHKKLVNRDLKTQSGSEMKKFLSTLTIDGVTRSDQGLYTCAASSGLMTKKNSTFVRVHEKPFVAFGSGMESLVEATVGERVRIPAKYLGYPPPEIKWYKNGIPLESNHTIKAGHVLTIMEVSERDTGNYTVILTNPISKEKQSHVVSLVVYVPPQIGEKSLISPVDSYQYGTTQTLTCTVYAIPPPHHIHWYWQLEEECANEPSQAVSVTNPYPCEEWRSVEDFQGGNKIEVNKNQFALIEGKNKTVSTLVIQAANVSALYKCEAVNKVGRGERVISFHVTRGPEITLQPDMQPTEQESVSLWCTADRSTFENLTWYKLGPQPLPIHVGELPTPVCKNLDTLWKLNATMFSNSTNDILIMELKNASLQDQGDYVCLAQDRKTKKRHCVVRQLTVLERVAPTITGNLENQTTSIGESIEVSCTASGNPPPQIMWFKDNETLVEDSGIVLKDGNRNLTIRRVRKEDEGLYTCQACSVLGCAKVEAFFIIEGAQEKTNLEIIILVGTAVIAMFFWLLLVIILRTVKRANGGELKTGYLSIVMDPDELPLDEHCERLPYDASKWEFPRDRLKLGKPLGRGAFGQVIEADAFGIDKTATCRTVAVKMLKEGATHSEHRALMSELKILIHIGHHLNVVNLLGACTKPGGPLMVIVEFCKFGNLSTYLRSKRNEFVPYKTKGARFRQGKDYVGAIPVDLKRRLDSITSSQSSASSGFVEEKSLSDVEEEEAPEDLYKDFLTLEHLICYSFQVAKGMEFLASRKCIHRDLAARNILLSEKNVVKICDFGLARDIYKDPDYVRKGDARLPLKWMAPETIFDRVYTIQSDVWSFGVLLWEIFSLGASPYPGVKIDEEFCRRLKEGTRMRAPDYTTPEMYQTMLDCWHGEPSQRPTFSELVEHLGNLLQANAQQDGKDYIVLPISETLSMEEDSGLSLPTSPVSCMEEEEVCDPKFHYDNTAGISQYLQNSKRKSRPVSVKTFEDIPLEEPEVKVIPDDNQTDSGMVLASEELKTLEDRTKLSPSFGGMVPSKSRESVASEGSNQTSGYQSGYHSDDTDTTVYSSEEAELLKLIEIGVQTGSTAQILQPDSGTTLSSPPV
T2 sequence (P35968 834-1162 limits assumed): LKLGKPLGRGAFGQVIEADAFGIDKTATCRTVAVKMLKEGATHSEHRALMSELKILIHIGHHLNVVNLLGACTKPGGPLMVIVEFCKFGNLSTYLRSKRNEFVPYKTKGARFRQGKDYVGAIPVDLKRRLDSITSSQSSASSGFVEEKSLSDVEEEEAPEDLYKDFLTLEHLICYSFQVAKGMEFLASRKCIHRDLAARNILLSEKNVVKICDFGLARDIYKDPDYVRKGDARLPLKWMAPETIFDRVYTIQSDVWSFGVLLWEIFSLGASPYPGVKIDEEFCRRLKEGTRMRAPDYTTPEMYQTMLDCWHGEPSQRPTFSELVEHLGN

IC50 [1]	IC50 [2]	melting point	SMILES
22 nM			CC(C)(C)c1ccc(Nc2ncc(Cc3ccc(O)nc3)c3ncccc23)cc1 [Example 41e, 5-[4-(tert-butyl)-anilino]-8-[(6-hydroxy-pyridin-3-yl)-methyl]-[1,6]naphthyridine]
10 nM	25 nM	81 °C	CC(C)(C)c1ccc(Nc2ncc(CCc3cccnc3)c3ccccc23)cc1 [Example 5]
		137 °C	Cc1nc(Nc2cccc(C(F)(F)F)c2)c2ccccc2c1Cc1ccc(Cl)nc1 [Example 45a, 1-(3-trifluoromethyl-anilino)-4-[(6-chloro-pyridin-3-yl)-methyl]-3-methylisoquinoline]
	49 nM		Cc1ccc(Nc2ncc(/C=C\c3cccnc3)c3ccccc23)cc1Br [Example 2, (Z) 1-(3-bromo-4-methylanilino)-4-[2-(pyridin-3-yl)-vinyl]-isoquinoline]
	48 nM		Cc1ccc(CCc2cnc(Nc3ccc(C(C)C)c(C)c3)c3ccccc23)cn1 [Example 20]
52 nM	81 nM		COc1ccc(Cc2cnc(Nc3ccc(C(C)(C)C)cc3)c3cccnc23)cn1 [Example 40e, 5-[4-(tert-butyl)-anilino]-8-[(6-methoxy-pyridin-3-yl)-methyl]-[1,6]naphthyridine]
	92 nM		CCc1ccc(Nc2ncc(Cc3ccc(O)nc3)c3ncccc23)cc1Br [Example 37b, 5-(3-bromo-4-ethyl-anilino)-8-[(6-hydroxy-pyridin-3-yl)-methyl]-[1,6]naphthyridine]
29 nM	137 nM		CCc1ccc(Nc2ncc(Cc3ccc(O)nc3)c3ccccc23)cc1Br [Example 34g, 1-(3-bromo-4-ethylanilino]-4-[(6-hydroxy-pyridin-3-yl)-methyl]-isoquinoline]
	123 nM	196 to 197 °C	Cc1ccc(Nc2ncc(/C=C/c3cccnc3)c3ccccc23)cc1Br [Example 3, (E) 1-(3-bromo-4-methylanilino)-4-[2-(pyridin-3-yl)-vinyl]-isoquinoline]
	15 nM	103 to 105 °C	CCc1ccc(Nc2ncc(CCc3ccc(C)nc3)c3ccccc23)cc1Br [Example 21]
19 nM			CC(C)(C)c1ccc(Nc2ncc(Cc3ccc(O)nc3)c3ccccc23)cc1 [Example 34e, 1-[4-(tert-butyl)-anilino]4-[(6-hydroxy-pyridin-3-yl)-methyl]-isoquinoline]
	33 nM	133 to 134 °C	CC(C)(C)c1cccc(Nc2ncc(CCc3cccnc3)c3ccccc23)c1 [Example 10]
	192 nM	174 °C	FC(F)(F)c1cc(Nc2ncc(CCc3cccnc3)c3ccccc23)cc(C(F)(F)F)c1 [Example 12]
		232 to 235 °C	CC(C)[C@H]1CC[C@H](Nc2ncc(Cc3ccc(O)nc3)c3ncccc23)CC1 [Example 39, trans 5-(4-isopropyl-cyclohexylamino)-8-[(6-hydroxy-pyridin-3-yl)-methyl]-[1,6]naphthyridine]
	185 nM		Nc1cc(Cl)cc(C(F)(F)F)c1 [Example 7, 5-amino-3-chloro-benzotrifluoride]
28 nM			COc1ccc(Cc2cnc(Nc3ccc(C(C)(C)C)cc3)c3ccccc23)cn1 [Example 33e, 1-[4-(tert-butyl)-anilino]-4-[(6-methoxy-pyridin-3yl)-methyl]-isoquinoline]
	196 nM	124 to 125 °C	CC(C)(C)[C@H]1CC[C@H](Nc2ncc(CCc3cccnc3)c3ccccc23)CC1 [16 (E isomer), trans 1-(4-tert-butyl-cyclohexylamino)-4-[2-(pyridin-3-yl)-ethyl]-isoquinoline]
		142 to 146 °C	CCc1ccc(Nc2ncc(Cc3ccc(OC)nc3)c3ncccc23)cc1Br [Example 37a, 5-(3-bromo-4-ethyl-anilino)-8-[(6-methoxy-pyridin-3-yl)-methyl]-[1,6]naphthyridine]
	87 nM		CC(C)[C@H]1CC[C@H](Nc2ncc(Cc3ccc(O)nc3)c3ccccc23)CC1 [29 (E isomer), trans 1-(4-isopropyl-cyclohexylamino)-4-[(6-hydroxy-pyridin-3-yl)-methyl]-isoquinoline]
	105 nM	157 to 158 °C	Clc1ccc(Nc2ncc(CCc3cccnc3)c3ccccc23)cc1 [Example 1, 1-(4chloroanilino)-4-[2-(pyridin-3-yl)-ethyl]-isoquinoline]
	53 nM	159 °C	FC(F)(F)c1cc(Nc2ncc(CCc3cccnc3)c3ccccc23)ccc1Cl [Example 13]
	127 nM		Cc1ccc(CCc2cnc(N[C@H]3CC[C@H](C(C)C)CC3)c3ccccc23)cn1 [Example 19, trans 1-(4-isopropyl-cyclohexylamino)-4-[2-(6-methyl-pyridin-3-yl)-ethyl]-isoquinoline]
91 nM	4 nM	119 °C	CCc1ccc(Nc2ncc(CCc3cccnc3)c3ccccc23)cc1Br [Example 9, 1-(3-bromo-4ethylanilino)-4-[2-(pyridin-3-yl)-ethyl]-isoquinoline]
	41 nM	124 to 125 °C	FC(F)(F)c1ccc(Nc2ncc(CCc3cccnc3)c3ccccc23)cc1C(F)(F)F [Example 11]
11 nM	27 nM	133 to 134 °C	Cc1cc(Nc2ncc(CCc3cccnc3)c3ccccc23)ccc1C(C)C [Example 8]
